Source: patent US8445636B2, “Antimicrobial and anticancer lipopeptides” (Yeda Research & Development Co. Ltd., priority 2003, dated 2013)
In brackets after ≈: the same amount, converted by molar mass. Where two headings read alike, the source gives them in different places. Non-standard residues stand in square brackets, D forms with d. Residues, ends and D or L forms follow the SMILES beside them. *: point of attachment. Palmitoyl = CCCCCCCCCCCCCCCC(=O)*; Lauroyl = CCCCCCCCCCCC(=O)*

What was measured:
Assay type in all cases: cell-based
[1] = test system: E. coli D21
[2] = test system: M. laleus; conditions: Table 3, short lipopeptides; pH 7.4
Method in brief: (§1)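 Broth microdilution in LB medium at pH 7.4 (pH 5.5 where indicated), 1×10^6 CFU/ml suspension mixed 1:1 with 2-fold serial dilutions of lipopeptide in water. After 18-20 h at 37° C, growth read by absorbance at 600 nm; MIC is the concentration giving 100% growth inhibition.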

[3] = test system: Pseudomonas aeruginosa ATCC 27853
Method in brief: as §1

[4] = test system: Staphylococcus aureus ATCC 6538P
Method in brief: as §1

[5] = test system: Candida albicans ATCC 10231; assay: microbe, parasite or virus in culture
Method in brief: (§2)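 MIC = lowest concentration giving 100% growth inhibition by A620 after 24-48 h at 35 °C with agitation. Inoculum: 1×10^4 CFU/ml (pre-mix) in RPMI 1640/0.165 M MOPS; pH 7.4 by default, 5.5 where noted. Peptide as twofold dilution series in water.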

[6] = test system: Cryptococcus neoformans ATCC MYA-422; assay: microbe, parasite or virus in culture; conditions: ATCC MYA-422, pH 7.4; for MIC: read-out: Minimal Inhibitory Concentration, Cyrptococcus neoformans (ATCC MYA-422)
[7] = test system: Aspergillus fumigatus ATCC 26430; assay: microbe, parasite or virus in culture
[8] = test system: Acinetobacter baumannii ATCC 19606
Method in brief: as §1

[9] = test system: Escherichia coli ATCC 25922
Method in brief: as §1

[10] = test system: E. aerogenes ATCC 35029; conditions: ATCC 35029, pH 7.4
Method in brief: as §1

[11] = test system: E. coli ATCC 35218; conditions: ATCC 35218, pH 7.4
Method in brief: as §1

[12] = test system: Cryptococcus neoformans ATCC 66031; assay: microbe, parasite or virus in culture
Method in brief: as §2

[13] = Cytotoxicity, XTT viability, non-cancer cells; conditions: mouse, non-cancer cell line, 24 h incubation, read-out: LC50, 3T3
Procedure: Prostate cancer cell lines (CL1 and 22RV1; ATCC, USA) were grown in RPMI-1640 supplemented with 10% FCS (Biological Industries, Beit Haemek, Israel). N1H-3T3 mouse fibroblast cell line (ATCC, USA) was grown in DMEM supplemented with 10% bovine serum. To test cytotoxicity against the cancer cells, aliquots of medium containing 1×10^4 cells were distributed into a 96-well plate (Falcon). After one day, the media were replaced with 90 μl of fresh media and 10 μl of a solution containing different concentrations of the peptides. The plate was then incubated for 24 h before adding to each well 50 μl of XTT reaction solution (Biological Industries, Beit Haemek, Israel); viability was determined as previously described (Papo et al., (2003) J. Biol. Chem. 278:21018-23). The LC50 (concentration at which 50% of the cells die) for each peptide was obtained from the dose-dependent cell viability curves.

[14] = ATCC 10231, pH 7.4, read-out: Minimal Inhibitory Concentration, Candida Albicans (ATCC 10231)
[15] = ATCC 26430, pH 7.4, read-out: Minimal Inhibitory Concentration, Aspergillus Fomigatus (ATCC 26430)
[16] = Table 3, short lipopeptides, pH 7.4

With CCCCCCCCCCCCCCCC(=O)N[C@@H](CCCCN)C(=O)NCC(=O)NCC(=O)N[C@H](CCCCN)C(N)=O [PA-KGGK, Palmitoyl-Lys-Gly-Gly-D-Lys-NH2] (Palmitoyl-KGG[dK]-NH2) the “Minimal Inhibitory Concentration, E. coli-D21” value ([1]; D21, pH 7.4) was 25 µM, the “Minimal Inhibitory Concentration, M. laleus” value [2] was 3.12 µM and the “Minimal Inhibitory Concentration, P. aeruginosa ATCC 27853” value ([3]; ATCC 27853, pH 7.4) was 12.5 µM. The “Minimal Inhibitory Concentration, S. aureus ATCC 6538P” value ([4]; ATCC 6538, pH 7.4) was 50 µM, the MIC [5, 14] was 12.5 µM (≈ 7.82 µg/mL) and the MIC [6] was 1.56 µM (≈ 0.976 µg/mL). It also gave an MIC [7, 15] of 6.25 µM (≈ 3.91 µg/mL).

In the case of Gentamycin [reference compound], the “Minimal Inhibitory Concentration, E. coli-D21” value [1, 16] was 1.56 µM, the “Minimal inhibitory concentrations, E. Coli D21” value ([1]; Table 6, pH 7.4) was 12.5 µM and the “Minimal inhibitory concentrations, E. Coli D21” value ([1]; Table 7, pH 5.5) was 12.5 µM. The “Minimal Inhibitory Concentration, A. baumannii ATCC 19606” value [8, 16] was 3.12 µM, the “Minimal inhibitory concentrations, A. baumannii ATCC 19606” value ([8]; Table 6, pH 7.4) was 12.5 µM and the “Minimal inhibitory concentrations, A. baumannii ATCC 19606” value ([8]; Table 7, pH 5.5) was 12.5 µM. For the same compound, the “Minimal inhibitory concentrations, E. Coli ATCC 25922” value ([9]; Table 6, pH 7.4) was 6.25 µM, the “Minimal inhibitory concentrations, E. Coli ATCC 25922” value ([9]; Table 7, pH 5.5) was 12.5 µM and the “Minimal Inhibitory Concentration, M. laleus” value [2] was 0.78 µM. For the same compound, the “Minimal Inhibitory Concentration, P. aeruginosa ATCC 27853” value [3, 16] was 0.78 µM, the “Minimal inhibitory concentrations, P. Aeruginosa ATCC 27853” value ([3]; Table 6, pH 7.4) was 12.5 µM and the “Minimal inhibitory concentrations, P. Aeruginosa ATCC 27853” value ([3]; Table 7, pH 5.5) was 12.5 µM. The “Minimal Inhibitory Concentration, S. aureus ATCC 6538P” value [4, 16] was 6.25 µM, the “Minimal inhibitory concentrations, S. aureus II ATCC 6538P” value ([4]; Table 6, pH 7.4) was 12.5 µM and the “Minimal inhibitory concentrations, S. aureus II ATCC 6538P” value ([4]; Table 7, pH 5.5) was 25 µM.

In the case of CCCCCCCCCCCC(=O)N[C@H](CC(C)C)C(=O)N[C@@H](CCCCN)C(=O)N[C@@H](CCCCN)C(=O)N[C@H](CC(C)C)C(=O)N[C@H](CC(C)C)C(=O)N[C@@H](CCCCN)C(=O)N[C@@H](CCCCN)C(=O)N[C@H](CC(C)C)C(=O)N[C@H](CC(C)C)C(=O)N[C@@H](CCCCN)C(=O)N[C@@H](CCCCN)C(=O)N[C@H](CC(C)C)C(N)=O [lipopeptide 22, (CH3-(CH2)10-CO-)-D-Leu-Lys-Lys-D-Leu-D-Leu-Lys-Lys-D-Leu-D-Leu-Lys-Lys-D-Leu-NH2] (Lauroyl-[dL]KK[dL][dL]KK[dL][dL]KK[dL]-NH2), the “Minimal inhibitory concentrations, E. Coli D21” value ([1]; D21, pH 5.5) was 25 µM (≈ 41.2 µg/mL), the “Minimal inhibitory concentrations, E. Coli D21” value ([1]; D21, pH 7.4) was 25 µM (≈ 41.2 µg/mL) and the “Minimal inhibitory concentrations, A. baumannii ATCC 19606” value ([8]; ATCC 19606, pH 5.5) was 25 µM (≈ 41.2 µg/mL). The “Minimal inhibitory concentrations, A. baumannii ATCC 19606” value ([8]; ATCC 19606, pH 7.4) was 25 µM (≈ 41.2 µg/mL), the “Minimal Inhibitory Concentration, E. aerogenes ATCC 35029” value [10] was 50 µM and the “Minimal Inhibitory Concentration, E. coli ATCC 35218” value [11] was 25 µM. For the same compound, the “Minimal inhibitory concentrations, E. Coli ATCC 25922” value ([9]; ATCC 25922, pH 5.5) was 50 µM (≈ 82.4 µg/mL), the “Minimal inhibitory concentrations, E. Coli ATCC 25922” value ([9]; ATCC 25922, pH 7.4) was 75 µM (≈ 124 µg/mL) and the “Minimal inhibitory concentrations, P. Aeruginosa ATCC 27853” value ([3]; ATCC 27853, pH 5.5) was 12.5 µM (≈ 20.6 µg/mL). The “Minimal Inhibitory Concentration, P. aeruginosa ATCC 27853” value ([3]; ATCC 27853, pH 7.4) was 25 µM, the “Minimal inhibitory concentrations, P. Aeruginosa ATCC 27853” value ([3]; ATCC 27853, pH 7.4) was 25 µM (≈ 41.2 µg/mL) and the “Minimal inhibitory concentrations, S. aureus II ATCC 6538P” value ([4]; ATCC 6538, pH 5.5) was greater than 100 µM. The “Minimal Inhibitory Concentration, S. aureus ATCC 6538P” value ([4]; ATCC 6538, pH 7.4) was 12.5 µM, the “Minimal inhibitory concentrations, S. aureus II ATCC 6538P” value ([4]; ATCC 6538, pH 7.4) was 3.125 µM (≈ 5.15 µg/mL) and the MIC ([5]; ATCC 10231, pH 5.5, read-out: Minimal inhibitory concentrations, C. Albicans With serum) was greater than 100 µM. The MIC ([5]; ATCC 10231, pH 5.5, read-out: Minimal inhibitory concentrations, C. Albicans Without serum) was 100 µM (≈ 165 µg/mL), the “Minimal Inhibitory Concentration, C. albicans ATCC 10231” value ([5]; ATCC 10231, pH 7.4) was 12.5 µM and the MIC ([5]; ATCC 10231, pH 7.4, read-out: Minimal inhibitory concentrations, C. Albicans With serum) was 100 µM (≈ 165 µg/mL). For the same compound, the MIC ([5]; ATCC 10231, pH 7.4, read-out: Minimal inhibitory concentrations, C. Albicans Without serum) was 3.125 µM (≈ 5.15 µg/mL), the MIC ([12]; ATCC 66031, pH 5.5, read-out: Minimal inhibitory concentrations, C. Neofor. With serum) was 1.56 µM (≈ 2.57 µg/mL) and the MIC ([12]; ATCC 66031, pH 5.5, read-out: Minimal inhibitory concentrations, C. Neofor. Without serum) was less than 0.78 µM. The MIC ([12]; ATCC 66031, pH 7.4, read-out: Minimal inhibitory concentrations, C. Neofor. With serum) was less than 0.78 µM, the MIC ([12]; ATCC 66031, pH 7.4, read-out: Minimal inhibitory concentrations, C. Neofor. Without serum) was less than 0.78 µM and the “Minimal Inhibitory Concentration, C. neoformans ATCC MYA-422” value [6] was 0.78 µM. For the same compound, the MIC ([7]; ATCC 26430, pH 5.5, read-out: Minimal inhibitory concentrations, A. Fumig. With serum) was 100 µM (≈ 165 µg/mL), the MIC ([7]; ATCC 26430, pH 5.5, read-out: Minimal inhibitory concentrations, A. Fumig. Without serum) was 75 µM (≈ 124 µg/mL) and the “Minimal Inhibitory Concentration, A. fumigatus ATCC 26430” value ([7]; ATCC 26430, pH 7.4) was 6.25 µM. It also gave an MIC ([7]; ATCC 26430, pH 7.4, read-out: Minimal inhibitory concentrations, A. Fumig. With serum) of 50 µM (≈ 82.4 µg/mL), an MIC ([7]; ATCC 26430, pH 7.4, read-out: Minimal inhibitory concentrations, A. Fumig. Without serum) of 12.5 µM (≈ 20.6 µg/mL) and a CC50 at 24 h [13] of 50 µM.

In the case of CCCCCCCCCCCCCCCC(=O)N[C@@H](CCCCN)C(=O)N[C@@H](CC(C)C)C(=O)N[C@H](CC(C)C)C(=O)N[C@@H](CCCCN)C(N)=O [PA-KLLK, Palmitoyl-Lys-Leu-D-Leu-Lys-NH2] (Palmitoyl-KL[dL]K-NH2), the “Minimal Inhibitory Concentration, E. coli-D21” value ([1]; D21, pH 7.4) was 100 µM, the “Minimal Inhibitory Concentration, M. laleus” value [2] was 3.12 µM and the “Minimal Inhibitory Concentration, P. aeruginosa ATCC 27853” value ([3]; ATCC 27853, pH 7.4) was 100 µM. The “Minimal Inhibitory Concentration, S. aureus ATCC 6538P” value ([4]; ATCC 6538, pH 7.4) was 3.12 µM, the MIC [5, 14] was 6.25 µM (≈ 4.61 µg/mL) and the MIC [6] was 1.56 µM (≈ 1.15 µg/mL). It also gave an MIC [7, 15] of 3.125 µM (≈ 2.31 µg/mL).
